Where a SMILES comes first, the peptide text is derived from it. [ ]: non-standard residue; d: D form. The star is where a group is joined. dPhe(4-NHCONH2) = NC(=O)Nc1ccc(C[C@@H](N)C(=O)O)cc1; Dihydroorotyl(S) = O=C1C[C@@H](C(=O)*)NC(=O)N1; dPhe(4-Cl) = N[C@H](Cc1ccc(Cl)cc1)C(=O)O; Phe(4-NH2) = Nc1ccc(C[C@H](N)C(=O)O)cc1; d2Nal = N[C@H](Cc1ccc2ccccc2c1)C(=O)O; Lys(iPr) = CC(C)NCCCC[C@H](N)C(=O)O; d3Pal = N[C@H](Cc1cccnc1)C(=O)O
How the values were obtained:
[1] = Reconstitution of lyophilised Degarelix with water for injection using an automatic swirling machine (laboratory tests); format: physicochemical; details: tested for the 80 mg and 120 mg doses
Description: For example, laboratory tests have shown that average reconstitution times when an automatic swirling machine is used are in the region of 0.8 minutes and the slowest times for reconstitution are in the region of 1.25 to 1.5 minutes (tested for the 80 mg and 120 mg doses). This compares well with the present system of swirling by hand, where the slowest times for reconstitution are near to 15 minutes. An automatic mixing apparatus may enable a reconstitution protocol to be formulated in which the Degarelix and WFI are mixed for a relatively short period of time, after which the Degarelix should in the vast majority of cases have gone into solution, as compared with mixing by hand. It is contemplated that the care-provider may check the clarity of the solution after it has been reconstituted with the automatic mixing apparatus and, if fully reconstituted, administer the solution to the patient.

[2] = test system: testosterone; details: used in a clinical preparation; cited from earlier work
[3] = Reconstitution of lyophilised Degarelix with water for injection, swirled by hand (laboratory testing); format: physicochemical
Description: The WFI in the syringe is then transferred into the Degarelix vial (I) and the assembly of vial, needle, and syringe is swirled by hand to ensure that the lyophilised Degarelix has completely gone into solution. […] In laboratory testing, the reconstitution times for hand swirled Degarelix solutions comprising 80 mg and 120 mg of lyophilised Degarelix are about 5 minutes and 7 minutes respectively. The slowest reconstitution times are considerably greater, however, and can be up to 15 minutes. To ensure that the Degarelix drug product has been fully reconstituted, the care-provider is required to swirl the assembly, by hand, for a period of up to 15 minutes. To assess whether the drug has been reconstituted, the care-provider periodically checks the vial to determine whether the solution is completely clear or not.

average reconstitution time [1]: ~0.8 min | reconstitution time ([3]; 80 mg of lyophilised Degarelix): about 5 minutes | reconstitution time ([3]; 120 mg of lyophilised Degarelix): ~7 min
Compound: CC(=O)N[C@H](Cc1ccc2ccccc2c1)C(=O)N[C@H](Cc1ccc(Cl)cc1)C(=O)N[C@H](Cc1cccnc1)C(=O)N[C@@H](CO)C(=O)N[C@@H](Cc1ccc(NC(=O)[C@@H]2CC(=O)NC(=O)N2)cc1)C(=O)N[C@H](Cc1ccc(NC(N)=O)cc1)C(=O)N[C@@H](CC(C)C)C(=O)N[C@@H](CCCCNC(C)C)C(=O)N1CCC[C@H]1C(=O)N[C@H](C)C(N)=O [Degarelix] (Ac-[d2Nal][dPhe(4-Cl)][d3Pal]S[Phe(4-NH2)](Dihydroorotyl(S))[dPhe(4-NHCONH2)]L[Lys(iPr)]P[dA]-NH2)
levels of testosterone [2]: reduction in levels of testosterone
